Assay results from patent US12484574B2, “Agent for promoting undifferentiation and cryoprotective agent using aprotic zwitterion” (JAPAN SCIENCE AND TECHNOLOGY AGENCY, priority 2019, dated 2025).

Columns and labels:
[1] = test system: Human iPS cells; test: Undifferentiation-specific gene expression analysis (Nanog, Oct3/4 quantitative PCR); type: cell-based; conditions: no addition defined as 1
Experimental: Human iPS cells (RIKEN BRC) were reconstituted on SNL feeder cells (manufactured by Cell Biolabs, Inc.) and cultured in a CO2 incubator (5% CO2, 37° C., wet). On the next day, medium replacement was performed. The medium was replaced with a fresh one every day until 80% confluency. The cells that reached 80% confluency were recovered and subcultured. The subculture method for the cells is as follows: the cells were washed with DPBS(−) (no calcium, no magnesium, Thermo Fisher Scientific Inc.) and then treated with a CTK solution ((0.25% trypsin+1 mg/ml collagenase IV+1 mM CaCl2+20% KSR in DPBS (−))). The CTK solution was removed, and the cells were washed with DPBS(−) twice. […]
Subsequently, the expression levels of undifferentiation-specific genes Nanog and Oct3/4 were measured. […] The expression levels of the undifferentiation markers were quantified by the following method. […]
cDNA was synthesized from the FastLane lysate (RNA) through RT-PCR reaction using QuantiTect Reverse Transcription Kit (manufactured by Qiagen N.V.).
The quantitative PCR of OCT3/4 and NANOG was carried out under conditions of 95° C. for 30 seconds; (95° C. for 5 seconds; 60° C. for 30 seconds)×40; dissociation using SYBR Premix Ex Taq II (Tli RNaseH Plus) (manufactured by Takara Bio Inc.). […]

[2] = Glass transition temperature and heat quantity by differential scanning calorimetry (DSC); type: physicochemical; conditions: 10 wt % in purified water, cooling −1° C./min, heating 5° C./min
Experimental: The glass transition temperature and the heat quantity were determined by differential scanning calorimetry (DSC). The measurement was performed with a cooling rate set to −1° C./min an d a heating rate set to 5° C./min.

[3] = test system: human fibroblasts; test: Influence on cell cycle (Click-iT Plus EdU cell proliferation assay); type: cell-based; conditions: 2% addition; compared with no addition; FIG. 11
Experimental: The cells used were human fibroblasts.
The test groups were 1% addition groups and 2% addition groups of DMSO and HLS (OE2imC3C) vs. a control.
Cell cycle analysis was conducted using Click-iT® Plus EdU cell proliferation assay (Thermo Fisher Scientific Inc.) containing 5-ethynyl-2′-deoxyuridine (EdU) according to the manufacturer's protocol. The cells were incubated in 10 μM EdU for 1 hour, treated with trypsin, then fixed in 4% PFA, and labeled with Alexa Fluor 647 picolyl azide. The cells were stained with 4′,6-diamidino-2-phenylindole (DAPI) and analyzed with BD FACSAria™ III (BD Biosciences).

Compound: COCCOCCn1cc[n+](CCCC(=O)[O-])c1 [OE2imC3C]
- relative expression levels of Nanog and Oct3/4 ([1]; with SNL feeder cells, 0.4, 1.0 and 2.0% (w/v) in human iPS cell medium, FIG. 1): amplify the undifferentiation markers
- relative expression levels of Nanog and Oct3/4 ([1]; without feeder cells, 1.0 and 2.0% (w/v) in SNL-conditioned medium, FIG. 2): amplify the undifferentiation markers
- Heat quantity [2]: -198.7 J/g
- Tg [2]: −85.69 °C
- influence on cell cycle (G0/G1 phase, S phase) [3]: little influence
